In one data set the test system is Mus musculus. To be noted: for LD50: acute.
For data set [1], the system named is Rattus norvegicus. To be noted: for LD50 / LC50: acute.
In data set [2] the test system is Rattus norvegicus. Particulars: subchronic, oral, M/F.
For data set [3], the system named is Rattus norvegicus. To be noted: subchronic, duration: 13 weeks, oral, gavage, M/F, Fischer 344.
Where [4] appears, read: forestomach lesions, kidney toxicity.
The mark [5] stands for this setting: chronic, duration: 103 weeks, inhalation, Fischer 344.
The mark [6] stands for this setting: chronic, duration: 91 days, oral, gavage.
The mark [7] stands for this setting: clinical sign (e.g., hunched postures) and reduced body weight.

≈ marks a conversion by molar mass, not a printed value. Where “and” joins values, the source holds several entries; their conditions need not be identical. Equal values may be shown once.

What is called LD50 is the dose expected to kill half of the subjects tested. In the case of `CCCCCCCCCCCCCCCCCC(=O)[O-].CCCCCCCCCCCCCCCCCC(=O)[O-].[Ba+2]` [Octadecanoic acid, barium salt], in the data set on Mus musculus (oral), the LD50 was 1830 mg/kg.
By LOAEL is commonly meant the lowest dose or exposure tested at which an adverse effect was seen. On to `CCN(CC)c1ccccc1` [N,N-Diethylaniline], for which the LD50 was 870 mg/kg in the data set on Mus musculus (injection, Intraperitoneal); 5000 mg/kg in the data set on Rattus norvegicus [1] (dermal); 720 mg/kg in the data set on Rattus norvegicus [1] (oral); 606 mg/kg with Rattus norvegicus [1] (oral, gavage, Wistar). In the data set on Rattus norvegicus [1] (inhalation), this molecule displayed an LC50 of 1.92 µg/mL (≈ 12.9 µM). The molecule also gave an LOAEL with Rattus norvegicus [1] (short-term, duration: 28 days, oral, gavage, Wistar) of 10 mg/kg-day.
Broadly, the NOAEL is the highest dose or exposure tested at which no adverse effect was seen. Consider `O=C([O-])c1[nH]n(-c2ccc(S(=O)(=O)[O-])cc2)c(=O)c1N=Nc1ccc(S(=O)(=O)[O-])cc1.[Na+].[Na+].[Na+]` [C.I. Acid Yellow 23], for which the “NOAEL (% diet)” value is 5 in the data set with Mus musculus (subchronic, duration: 3 months, oral, diet, CD1); 5 in the data set with Rattus norvegicus [1] (chronic, duration: 113 weeks, oral, diet); 5 in the data set with Rattus norvegicus [1] (reproduction developmental, duration: 114 weeks, oral, diet). Further, the NOAEL with Mus musculus (subchronic, duration: 3 months, oral, diet, F, CD1) was 9750 mg/kg-day; in the data set on Mus musculus (subchronic, duration: 3 months, oral, diet, M, CD1) it was 8100 mg/kg-day; with Rattus norvegicus [1] (chronic, duration: 113 weeks, oral, diet, F) it was 3350 mg/kg-day; with Rattus norvegicus [1] (chronic, duration: 113 weeks, oral, diet, M) it was 2640 mg/kg-day; in the data set on Rattus norvegicus [1] (developmental, duration: 19 days, oral, gavage, Osborne-Mendel) it was above 1000 mg/kg-day; in the data set on Rattus norvegicus [1] (reproduction developmental, duration: 114 weeks, oral, diet, M), 2640 mg/kg-day and 3350 mg/kg-day. In the data set on Rattus norvegicus [1] (reproduction developmental, duration: 19 days, oral, gavage, F, Osborne-Mendel), this molecule returned an NOAEL above 1000 mg/kg-day.
Regarding `O=Cc1ccccc1` [Benzaldehyde], the LOAEL in the data set with Rattus norvegicus [2] (setting [4]) turned out to be 400 mg/kg-day. The NOEL was 143 mg/kg-day and 200 mg/kg-day with Rattus norvegicus [2] (setting [4]); 200 mg/kg-day in the data set with Rattus norvegicus [3] (Deaths + Body Weight Changes: decrease + Histopathology: Brain/cerebellum -Degeneration Brain/cerebellum -Necrosis Brain/cerebellum -…).
On to `C=CC` [1-Propene], for which the NOAEL in the data set on Mus musculus (chronic, duration: 14 weeks, inhalation, B6C3F1) is 17200 mg/m3; with Mus musculus (chronic, duration: 78 weeks, inhalation, Swiss) it was at least 8610 mg/m3; in the data set with Mus musculus (chronic, duration: 103 weeks, inhalation, B6C3F1) it was at least 17200 mg/m3; with Rattus norvegicus [1] (chronic, duration: 14 weeks, inhalation, Fischer 344), 17200 mg/m3; in the data set on Rattus norvegicus [1] (setting [5]), 8610 mg/m3; in the data set with Rattus norvegicus [1] (chronic, duration: 104 weeks, inhalation, Sprague-Dawley), at least 8610 mg/m3. The same molecule showed an NOAEL with Rattus norvegicus [1] (short-term, duration: 4 weeks, inhalation, Fischer 344) of 17200 mg/m3. Also, the LC50 with Rattus norvegicus [1] (inhalation, Sprague-Dawley) was above 112000 mg/m3. Moreover, the lowest observed adverse effect level (LOAEL) with Rattus norvegicus [1] (setting [5]) was determined as 17200 mg/m3.
`C=CC(=O)OCCN(C)C` [2-(Dimethylamino)ethyl acrylate]: the 50% lethal dose (LD50) in the data set with Mus musculus (injection, Intraperitoneal, NMRI) was 200 mg/kg; with Rattus norvegicus [1] (dermal), 891 mg/kg; in the data set on Rattus norvegicus [1] (dermal, semiocclusive, Sprague-Dawley), 419 mg/kg; with Rattus norvegicus [1] (injection, Intraperitoneal), 183 mg/kg; with Rattus norvegicus [1] (oral), 533 mg/kg. For the same molecule, the LC50 was 0.066 µg/mL (≈ 0.461 µM) in the data set on Rattus norvegicus [1] (Inhalation, Sprague-Dawley); 0.22 µg/mL and < 0.352 µg/mL in the data set on Rattus norvegicus [1] (inhalation); 0.972 µg/mL (≈ 6.79 µM) in the data set on Rattus norvegicus [1] (inhalation, Wistar). Further, the NOAEL stood at 30 mg/kg-day in the data set with Rattus norvegicus [1] (developmental, oral, gavage, Crj:CD); 20 mg/kg-day in the data set on Rattus norvegicus [1] (reproduction developmental, duration: 43 days, oral, gavage, Sprague-Dawley); 100 mg/kg-day with Rattus norvegicus [1] (reproduction developmental, duration: 43 days, oral, gavage, Sprague-Dawley, generation: F0); 10 mg/kg-day in the data set with Rattus norvegicus [1] (subchronic, duration: 13 weeks, oral, gavage, Sprague-Dawley).
For the molecule `CCCCC(CC)COC(=O)CCCCCCCCC(=O)OCC(CC)CCCC` (configuration not stated) [Bis(2-ethylhexyl) decanedioate], the 50% lethal dose (LD50) in the data set with Mus musculus (oral, gavage) turned out to be 9500 mg/kg; in the data set on Rattus norvegicus [1] (oral, gavage), 17000 mg/kg.
As to `Cc1cc(N=Nc2c(O)ccc3ccccc23)c(S(=O)(=O)[O-])cc1Cl.Cc1cc(N=Nc2c(O)ccc3ccccc23)c(S(=O)(=O)[O-])cc1Cl.[Ba+2]` [C.I. Pigment Red 53], the no-observed-adverse-effect level (NOAEL) with Mus musculus (setting [6]) was 90 mg/kg-day; with Rattus norvegicus [1] (setting [6]), 25 mg/kg-day; in the data set on Rattus norvegicus [1] (reproduction developmental, duration: 30 months, oral, gavage, F), below 10000 ppm; with Rattus norvegicus [1] (reproduction developmental, duration: 30 months, oral, gavage, generation: F0), above 10000 ppm; with Rattus norvegicus [1] (reproduction developmental, duration: 30 months, oral, gavage, generation: F1) it was above 10000 ppm.
For the molecule `NNS(=O)(=O)c1ccc(Oc2ccc(S(=O)(=O)NN)cc2)cc1` [4,4'-Oxybis(benzenesulfohydrazide)], the LD50 in the data set on Mus musculus (injection, Intraperitoneal) is above 5000 mg/kg; with Rattus norvegicus [1] (oral) it was 2300 mg/kg; in the data set with Rattus norvegicus [1] (oral, albino), above 5200 mg/kg. Besides, the LOAEL with Rattus norvegicus [1] (chronic, duration: 4 months, oral, gavage) is 36 mg/kg-day.
In the data set with Rattus norvegicus [2] (setting [7]), `[N-]=[N+]=[N-].[Na+]` [Sodium azide] gave an LOAEL of 10 mg/kg-day and a no observed adverse effect level (NOAEL) of 5 mg/kg-day. In the data set on Rattus norvegicus [3] (Deaths + Clinical Observation: Hunched posture Ruffled fur Lethargy Decreased appetite Impaired breathing + Body Weight Changes: decrease + …), the NOEL is below 1.25 mg/kg-day.
For `CC(=O)CC(=O)N(C)C` [N,N-Dimethylacetoacetamide], the LD50 was at least 3200 mg/kg in the data set on Mus musculus (oral, gavage) and at least 3200 mg/kg in the data set with Rattus norvegicus [1] (oral, gavage).

(Values after EPA's ToxValDB 9.5.)
